Laboratory results from ChEMBL document CHEMBL1130048, “Biological and conformational examination of stereochemical modifications using the template melanotropin peptide, Ac-Nle-c[Asp-His-Phe-Arg-Trp-Ala-Lys]-NH2, on human melanocortin receptors” (J Med Chem, 1997).

Legend:
Melanocortin receptor 3 [1] = biological target: T1, Melanocortin receptor 3 (Homo sapiens, UniProt P41968); test: Effective concentration that was able to generate 50% maximal intracellular cAMP in L-cells transfected with Melanocortin 3 receptor; type: functional, cell-based
T1 sequence (P41968 whole entry): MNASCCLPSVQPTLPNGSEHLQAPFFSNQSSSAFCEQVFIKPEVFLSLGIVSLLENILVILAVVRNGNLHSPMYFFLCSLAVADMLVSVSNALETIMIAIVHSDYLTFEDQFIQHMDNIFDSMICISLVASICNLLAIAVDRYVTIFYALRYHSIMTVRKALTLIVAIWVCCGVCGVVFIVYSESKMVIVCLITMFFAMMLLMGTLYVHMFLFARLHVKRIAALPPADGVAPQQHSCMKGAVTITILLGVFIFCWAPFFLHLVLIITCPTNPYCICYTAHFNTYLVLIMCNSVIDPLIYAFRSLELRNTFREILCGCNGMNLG

[2] = biological target: T2, Melanocyte-stimulating hormone receptor (Homo sapiens, UniProt Q01726); test: Effective concentration for intracellular cAMP accumulation in L-cells expressing Melanocortin 1 receptor; type: functional, cell-based
T2 sequence (Q01726 whole entry): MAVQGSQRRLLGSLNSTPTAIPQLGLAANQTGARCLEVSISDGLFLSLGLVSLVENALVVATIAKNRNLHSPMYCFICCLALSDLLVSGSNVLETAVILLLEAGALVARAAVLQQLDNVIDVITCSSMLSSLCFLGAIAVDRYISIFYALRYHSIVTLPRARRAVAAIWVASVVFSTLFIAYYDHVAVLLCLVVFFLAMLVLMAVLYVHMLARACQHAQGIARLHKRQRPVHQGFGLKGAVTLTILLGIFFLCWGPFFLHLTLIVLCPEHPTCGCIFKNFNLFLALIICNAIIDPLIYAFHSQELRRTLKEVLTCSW

[3] = biological target: T2, Melanocyte-stimulating hormone receptor; test: Inhibitory concentration against human Melanocortin 1 receptor (hMC1R)
Melanocortin receptor 4 [4] = biological target: T3, Melanocortin receptor 4 (Homo sapiens, UniProt P32245); test: Inhibitory concentration against human Melanocortin 4 receptor (hMC4R)
T3 sequence (P32245 whole entry): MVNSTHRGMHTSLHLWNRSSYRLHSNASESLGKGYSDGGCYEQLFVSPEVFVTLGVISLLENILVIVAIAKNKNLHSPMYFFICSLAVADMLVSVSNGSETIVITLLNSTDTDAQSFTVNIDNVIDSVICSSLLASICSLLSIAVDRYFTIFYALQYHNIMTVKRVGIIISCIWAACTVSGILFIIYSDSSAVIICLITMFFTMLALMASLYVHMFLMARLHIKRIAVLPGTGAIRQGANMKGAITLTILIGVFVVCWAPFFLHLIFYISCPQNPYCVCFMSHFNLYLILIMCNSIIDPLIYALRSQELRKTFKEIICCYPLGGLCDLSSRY

Melanocortin receptor 3 [5] = biological target: T1, Melanocortin receptor 3; test: Inhibitory concentration against human Melanocortin 3 receptor (hMC3R)
Melanocortin receptor 4 [6] = biological target: T3, Melanocortin receptor 4; test: Effective concentration for intracellular cAMP accumulation in L-cells expressing Melanocortin 4 receptor; type: functional, cell-based
Melanocortin receptor 5 = Melanocortin receptor 5 (Homo sapiens, UniProt P33032); test: Inhibitory concentration against human Melanocortin 5 receptor (hMC5R)
Chain of Melanocortin receptor 5 (P33032 whole entry): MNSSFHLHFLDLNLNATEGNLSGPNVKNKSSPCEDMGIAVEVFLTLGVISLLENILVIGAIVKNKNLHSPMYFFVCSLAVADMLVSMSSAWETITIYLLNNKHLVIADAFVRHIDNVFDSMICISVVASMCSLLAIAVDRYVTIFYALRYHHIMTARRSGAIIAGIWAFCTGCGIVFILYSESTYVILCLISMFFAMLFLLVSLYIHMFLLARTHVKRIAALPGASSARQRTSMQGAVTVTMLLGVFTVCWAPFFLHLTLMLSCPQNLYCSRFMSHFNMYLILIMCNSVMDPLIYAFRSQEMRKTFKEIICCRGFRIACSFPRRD

EC50 [2] [nM] | IC50 [3] [nM] | SMILES | EC50 (Melanocortin receptor 3 [1]) [nM] | IC50 (Melanocortin receptor 4 [4]) [nM] | IC50 (Melanocortin receptor 3 [5]) [nM] | EC50 (Melanocortin receptor 4 [6]) [nM] | IC50 (Melanocortin receptor 5) [nM]
0.3 | 0.91 | CCCC[C@H](NC(C)=O)C(=O)N[C@H]1CC(=O)NCCCC[C@@H](C(N)=O)NC(=O)[C@H](C)NC(=O)C(Cc2c[nH]c3ccccc23)NC(=O)[C@H](CCCN=C(N)N)NC(=O)[C@H](Cc2ccccc2)NC(=O)[C@H](Cc2c[nH]cn2)NC1=O (single isomer, unassigned) | – | – | – | – | –
2.61 | 22.4 | CCCC[C@H](NC(C)=O)C(=O)N[C@H]1CC(=O)NCCCC[C@@H](C(N)=O)NC(=O)[C@H](C)NC(=O)C(Cc2c[nH]c3ccccc23)NC(=O)[C@H](CCCN=C(N)N)NC(=O)C(Cc2ccccc2)NC(=O)[C@H](Cc2c[nH]cn2)NC1=O (single isomer, unassigned) | – | – | – | – | –
34.2 | 264 | CCCC[C@H](NC(C)=O)C(=O)N[C@@H]1CC(=O)NCCCC[C@@H](C(N)=O)NC(=O)[C@H](C)NC(=O)[C@@H](Cc2c[nH]c3ccccc23)NC(=O)[C@H](CCCNC(=N)N)NC(=O)[C@H](Cc2ccccc2)NC(=O)[C@H](Cc2cnc[nH]2)NC1=O | – | – | – | – | –
0.098 | 0.35 | CCCC[C@H](NC(C)=O)C(=O)N[C@H]1CC(=O)NCCCC[C@@H](C(N)=O)NC(=O)[C@H](C)NC(=O)C(Cc2c[nH]c3ccccc23)NC(=O)[C@H](CCCN=C(N)N)NC(=O)[C@@H](Cc2ccccc2)NC(=O)[C@H](Cc2c[nH]cn2)NC1=O (single isomer, unassigned) | – | – | – | – | –

SMILES | EC50 [2] [nM] | IC50 [3] [nM] | EC50 (Melanocortin receptor 3 [1]) [nM] | IC50 (Melanocortin receptor 4 [4]) [nM] | IC50 (Melanocortin receptor 3 [5]) [nM] | EC50 (Melanocortin receptor 4 [6]) [nM] | IC50 (Melanocortin receptor 5) [nM]
CC(=O)N[C@@H]1CC(=O)NCCCC[C@H](C(N)=O)NC(=O)[C@@H](C)NC(=O)[C@H](Cc2c[nH]c3ccccc23)NC(=O)[C@@H](CCCNC(=N)N)NC(=O)[C@H](Cc2ccccc2)NC(=O)[C@@H](Cc2cnc[nH]2)NC1=O | 13.4 | 1.94 | 88.5 | 2.03 | 102 | 2.92 | > 1000
